The results in this text go back to US20150057366A1, “SYNTHESIS OF ELEMICIN AND TOPICAL ANALGESIC COMPOSITIONS” (priority 2012, published 2015).

A short description of this assay: Preliminary work by the applicant on topical analgesic effectiveness of elemicin compositions. It is filed as in vivo.

`C/C=C/c1cc(OC)c(OC)c(OC)c1` [iso-elemicin]: under “topical analgesic compositions, work thus far by the inventor”, the “effectiveness in analgesic compositions” value is recorded as “also effective”.

With `C=CCc1cc(OC)c(OC)c(OC)c1` [elemicin, 1,2,3-Trimethoxy-5-prop-2-enylbenzene], the “elemicin content compositions require to start being effective as topical analgesics” value (topical composition, 30% more preferred, preliminary work) was “at least 20%”. In addition, the “analgesic effectiveness at the concentrations occurring in natural oils” value (topical, around 2.4-3.0% in nutmeg and manila elemi oils, up to around 10-14% in mace and some elemi oil) is “analgesic effectiveness does not occur at such low doses”.
